# From patent US9888679B2, “Protection of progenitor cells and regulation of their differentiation” (Proteobioactives Pty Ltd, priority 2007, dated 2018)
# Assays:
# human progenitor cell = test: Viability after cryopreservation and thawing, MTT assay; type: cell-based; settings: FIG. 3
# Protocol: FIG. 3. Effects of different concentrations of Pentosan Polysulfate (PPS) on progenitor cell viability following cryopreservation in liquid nitrogen and rapidly thawing as described in FIG. 1. Cell viability was determined using the mitochondrial dehydrogenase MTT assay. Data shown=Means±SD *=p<0.05 relative to control values
# Murine Progenitor cells (cell lines C3H10T1/2 or ATDC5) purchased from RIKEN Cell Bank (Tsukuba, Japan) or human immunoselected Stro-1+ progenitor cells (Mesoblast Ltd, Melbourne, Australia) were seeded at a various cell densities over the range of 1.68×10^5-1.0×10^6 cells into 2 mL screw-capped centrifuge tubes containing in DMEM+10% FBS. In separate tubes a stock solution containing 2× the required concentrations of PPS dissolved in DMEM+20% FBS and 15% DMSO were prepared. These stock solutions were added to the cell cultures such that the final concentration of PPS was half that of the stock concentration and of FBS was 10% and DMSO was […]. Over several independent experiments the final concentrations of PPS in the final solutions ranged from 0.0-100 ug/ml (see figures for details). All concentrations of PPS used were examined in triplicated. Cells and the cryopreservation solutions containing the PPS were mixed gently for 5 mins and stored in liquid nitrogen. […] 90 ul×3 from each tube were transferred to a 96-well plate and the absorbance at 540 nm determined. […]
# Primary progenitor cells = test: Differentiation in adipogenic media: adipocyte formation, Oil Red O; type: cell-based, human; settings: FIG. 8; for differentiation of progenitor cells into adipocytes: adipogenic media, 1.0, 5.0, 10 micrograms/mL
# Protocol: FIG. 8. The Effects of Pentosan Polysulfate (PPS) on Human progenitor cell Differentiation: Adipocyte Formation. Primary progenitor cells were cultured in 96 well plates in non-adipogenic growth media (media control) or under adipogenic conditions (0.5 mM methylisobutylmethylxanthine, 0.5 μM hydrocortisone, and 60 μM indomethacin) in the presence of PPS at the indicated concentrations. On day 28, the presence of lipid laden adipocytes was determined using the lipophilic dye Oil Red O. The relative amount of solubilised lipid per μg of DNA/well was determined following the assessment of the total amount of DNA per well using a fluorogenic DNA stain (Hoeshst 33258). […] (A) Phase-contrast photomicrographs of Oil Red O labeled adipocytes at ×20 magnification.
# The conditions required for the development of lipids from human bone marrow stromal cells in vitro have been previously described (Gimble J. Marrow stromal adipocytes. In: Marrow stromal cell culture. J N Beresford, Owen, M. E., ed. Cambridge University Press, Cambridge, pp 67-87 (1998)). Briefly, human progenitor cells were seeded into 96-well plates at a density of 8×10^3 cells per well in complete alpha-MEM growth media and were allowed to reach >90% confluence prior to addition of inductive media. Cells were cultured in adipogenic-inductive media comprised of complete alpha-MEM supplemented with 0.5 mM 3-Isobutyl-1-methyl-xanthine (IBMX), 60 microM Indomethacin, and 0.5 microM Hydrocortisone in the presence of a titration of PPS (0.0, 1.0, 5.0, 10 micrograms/mL). The inductive media was changed twice weekly for a period of 4 weeks. Cells were stained for the presence of lipid using Oil Red ‘O’.
# Cells were cultured as described above and gently rinsed in 1×PBS (pH7.4) to avoid disruption of the cell monolayer. Cells were fixed in phosphate buffered formalin for 15 minutes at RT. The fixative was subsequently removed and lipid stained by adding 100 microL of freshly filtered Oil Red O (3 mg/mL; MP Biomedicals, Australia) for ≧2 hours at RT. […]
# [1] = test system: Murine MSC line C3H10T1/2; test: Proteoglycan biosynthesis (35S-GAG) in 7 day pellet cultures; type: cell-based; settings: 10 micrograms/mL; 7 day pellet culture; FIG. 15
# Source text: FIG. 15. Bar graphs showing the concentration dependent effects of Pentosan Polysulfate (PPS), on the biosynthesis of Proteoglycans (PGs) as determined by the incorporation of radioactively labelled sulfate into the sulfated glycosaminoglycans (^35S-GAG) of PGs in 7 day pellet cultures of a murine progenitor cells (C3H10T1-2).
# Murine Progenitor cells (cell lines C3H10T1/2 or ATDC5) purchased from RIKEN Cell Bank (Tsukuba, Japan) or human immunoselected Stro-1+ Progenitor cells (Mesoblast Ltd, Melbourne, Australia) were seeded in 2 ml screw-capped sterile centrifuge tubes and the total volume made-up to 1 ml with DMEM-High glucose medium containing 10% FBS. Progenitor cells were then centrifuged at 500 g for 10 min in a swing-out rotor at room temperature. The screw caps were loosened and the tubes placed in an incubator at 37° C., in a 5% CO2/95% air moist atmosphere. The pellets generally formed within 24 hours. Medium was changed daily in the first two days, then once every 2-3 days thereafter. […] Biosynthesis of ^35S-GAGs was determined as described for the monolayer cultures and the results expressed as ^35-S-GAGs/μg DNA.
substance,measurement,setting,value
pentosan polysulfate [PPS],cell viability after cryopreservation and thawing (MTT),"human progenitor cell; 168,000 cells, particularly at 1 and 2.5 μg/ml PPS",improved the viability of the cells
same,cell viability after cryopreservation and thawing (MTT),"human progenitor cell; 350,000 cells",not adversely affected
same,adipocyte number (Oil Red O lipid per μg DNA),"Primary progenitor cells; adipogenic conditions, day 28, PPS in excess 1 ug/ml, p<0.01, ANOVA",statistically significant increase in adipocyte number
same,differentiation of progenitor cells into adipocytes,Primary progenitor cells,upregulation seen at all concentrations
same,differentiation of progenitor cells into adipocytes,Primary progenitor cells; listed as polysulfated polysaccharides,showed differentiated to adipocytes
same,"increase of proteoglycan synthesis, of the control values",[1],more than 80%
